Test results as given in PubChem BioAssay (NCI).
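1) Cells in 96-well plates. 2) Compound, 48 h, 5 concentrations. 3) Linear interpolation between surrounding doses. 4) Unreached endpoint = highest concentration. Abbreviation: GI50, concentration required for 50% inhibition of growth. Definition used: TGI = concentration required for complete inhibition of growth.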

Experiments:
Assay in all cases: NCI-60 cell line screen, 48 h
[1] = test system: 786-0 renal
[2] = test system: A498 renal
[3] = test system: A549 NSCLC
[4] = test system: ACHN renal
[5] = test system: BT-549 breast
[6] = test system: CAKI-1 renal
[7] = test system: CCRF-CEM leukemia
[8] = test system: COLO 205 colon
[9] = test system: DU-145 prostate
[10] = test system: EKVX NSCLC
[11] = test system: HCC-2998 colon
[12] = test system: HCT-116 colon
[13] = test system: HCT-15 colon
[14] = test system: HL-60(TB) leukemia
[15] = test system: HOP-62 NSCLC
[16] = test system: HOP-92 NSCLC
[17] = test system: HS 578T breast
[18] = test system: HT29 colon
[19] = test system: IGROV1 ovarian
[20] = test system: K-562 leukemia
[21] = test system: KM12 colon
[22] = test system: LOX IMVI melanoma
[23] = test system: M14 melanoma
[24] = test system: MALME-3M melanoma
[25] = test system: MCF7 breast
[26] = test system: MDA-MB-231 breast
[27] = test system: MDA-MB-435
[28] = test system: MOLT-4 leukemia
[29] = test system: NCI-H226 lung
[30] = test system: NCI-H23 lung
[31] = test system: NCI-H460 lung
[32] = test system: NCI-H522 lung
[33] = test system: NCI/ADR-RES ovarian
[34] = test system: OVCAR-4 ovarian
[35] = test system: OVCAR-5 ovarian
[36] = test system: OVCAR-8 ovarian
[37] = test system: PC-3 prostate
[38] = test system: RPMI-8226 leukemia
[39] = test system: RXF 393 renal
[40] = test system: SF-268 CNS
[41] = test system: SF-295 CNS
[42] = test system: SF-539 CNS
[43] = test system: SK-MEL-2 melanoma
[44] = test system: SK-MEL-28 melanoma
[45] = test system: SK-MEL-5 melanoma
[46] = test system: SK-OV-3 ovarian
[47] = test system: SN12C renal
[48] = test system: SNB-19 CNS
[49] = test system: SNB-75 CNS
[50] = test system: SR leukemia
[51] = test system: SW-620 colon
[52] = test system: T-47D breast
[53] = test system: TK-10 renal
[54] = test system: U251 CNS
[55] = test system: UACC-257 melanoma
[56] = test system: UACC-62 melanoma
[57] = test system: UO-31 renal

Oc1cccc2ccc(-c3nnc(SCc4ccc(O)c5ncccc45)o3)nc12
GI50 [1]: 627 nM
TGI [1]: > 100000 nM
GI50 [2]: 1200 nM
TGI [2]: 7320 nM
GI50 [3]: 204 nM
TGI [3]: > 100000 nM
GI50 [4]: 419 nM
TGI [4]: > 100000 nM
GI50 [5]: 110 nM
TGI [5]: > 20700 nM
GI50 [6]: 428 nM
TGI [6]: > 100000 nM
GI50 [7]: 329 nM
TGI [7]: > 100000 nM
GI50 [8]: 1730 nM
TGI [8]: 4960 nM
GI50 [9]: 117 nM
TGI [9]: > 100000 nM
GI50 [10]: 807 nM
TGI [10]: > 100000 nM
GI50 [11]: 643 nM
TGI [11]: > 100000 nM
GI50 [12]: 71 nM
TGI [12]: > 100000 nM
GI50 [13]: 158 nM
TGI [13]: > 100000 nM
GI50 [14]: 583 nM
TGI [14]: > 100000 nM
GI50 [15]: 369 nM
TGI [15]: > 40200 nM
GI50 [16]: 173 nM
TGI [16]: 707 nM
GI50 [17]: 181 nM
GI50 [18]: 4910 nM
TGI [18]: > 100000 nM
GI50 [19]: 457 nM
TGI [19]: > 100000 nM
GI50 [20]: 147 nM
TGI [20]: > 100000 nM
GI50 [21]: 432 nM
TGI [21]: > 100000 nM
GI50 [22]: 120 nM
TGI [22]: > 100000 nM
GI50 [23]: 332 nM
TGI [23]: 79500 nM
GI50 [24]: 365 nM
TGI [24]: 3810 nM
GI50 [25]: 367 nM
TGI [25]: > 32400 nM
GI50 [26]: 1650 nM
TGI [26]: > 100000 nM
GI50 [27]: 294 nM
TGI [27]: > 100000 nM
GI50 [28]: 457 nM
TGI [28]: > 100000 nM
GI50 [29]: 2410 nM
TGI [29]: > 100000 nM
GI50 [30]: 268 nM
TGI [30]: > 100000 nM
GI50 [31]: 39.3 nM
TGI [31]: 11400 nM
GI50 [32]: 440 nM
TGI [32]: 5540 nM
GI50 [33]: 696 nM
TGI [33]: > 100000 nM
GI50 [34]: 2000 nM
TGI [34]: > 100000 nM
GI50 [35]: 2170 nM
TGI [35]: > 100000 nM
GI50 [36]: 302 nM
TGI [36]: > 100000 nM
GI50 [37]: 175 nM
TGI [37]: > 100000 nM
GI50 [38]: 266 nM
TGI [38]: > 100000 nM
GI50 [39]: 350 nM
TGI [39]: > 24500 nM
GI50 [40]: 226 nM
TGI [40]: > 100000 nM
GI50 [41]: 315 nM
TGI [41]: > 25700 nM
GI50 [42]: 275 nM
TGI [42]: > 100000 nM
GI50 [43]: 513 nM
TGI [43]: 2700 nM
GI50 [44]: 492 nM
TGI [44]: > 100000 nM
GI50 [45]: 326 nM
TGI [45]: 1550 nM
GI50 [46]: 761 nM
TGI [46]: 5280 nM
GI50 [47]: 280 nM
TGI [47]: > 100000 nM
GI50 [48]: 273 nM
TGI [48]: > 100000 nM
GI50 [49]: 177 nM
TGI [49]: > 22600 nM
GI50 [50]: 338 nM
TGI [50]: > 100000 nM
GI50 [51]: 452 nM
TGI [51]: > 100000 nM
GI50 [52]: 428 nM
TGI [52]: > 100000 nM
GI50 [53]: 1990 nM
TGI [53]: > 27100 nM
GI50 [54]: 103 nM
TGI [54]: > 100000 nM
GI50 [55]: 413 nM
TGI [55]: 4510 nM
GI50 [56]: 467 nM
TGI [56]: 19700 nM
GI50 [57]: 299 nM
TGI [57]: 7240 nM
